The text below walks through data of PMC12689914, “Identification of a novel dual-targeting peptide inhibitor of SARS-CoV-2 RBD and NRP1 through structure-based virtual screening” (Frontiers in Pharmacology, 2025).

A word on the Kd: it is the concentration at which binding is half-saturated. A lower Kd goes with a tighter complex. One may read the IC50 as the point on the concentration scale where inhibition reaches its midpoint.

Non-standard residues stand in square brackets, D forms with d. Residues, ends and D or L forms follow the SMILES beside them. No end group written: not given here. *: point of attachment. Biotin = O=C1N[C@H]2[C@H](CS[C@H]2CCCCC(=O)*)N1; βAla = NCCC(=O)O

Data set [1] addresses T1, NRP1 (Homo sapiens, UniProt O14786).
T1 construct: purchased Abcam
Briefly: MST binding affinity to NRP1. As to the method:
(§1) MST assay was used to analyze the binding ability of peptides 1–5 to RBD and NRP1. Specifically, RBD and NRP1 proteins were labeled using a lysine (Lys) labeling kit, respectively, and their final concentrations were adjusted to 50 nM. The peptides were serially diluted in a 1:1 gradient starting from an initial concentration of 12.5 μM. Subsequently, the labeled proteins were mixed with the diluted peptides in 100 mM potassium phosphate buffer (pH 7.0). After incubation at room temperature for 5 min, the mixture was loaded into standard MST glass capillaries. Detection was performed using a Monolith NT.115 instrument with the MST power set to 50% and the LED power set to 20%. The experiment was independently repeated three times.

The target of data set [2] is SARS-CoV-2 RBD. Briefly: MST binding affinity to RBD. To be noted: for Kd: MST, 50 nM labeled protein, 100 mM potassium phosphate buffer pH 7.0. The method, then: as §1
The target of data set [3] is T2, hERG channel (Homo sapiens, UniProt Q12809).
T2 construct: purchased Invitrogen
T2 sequence (Q12809 whole entry): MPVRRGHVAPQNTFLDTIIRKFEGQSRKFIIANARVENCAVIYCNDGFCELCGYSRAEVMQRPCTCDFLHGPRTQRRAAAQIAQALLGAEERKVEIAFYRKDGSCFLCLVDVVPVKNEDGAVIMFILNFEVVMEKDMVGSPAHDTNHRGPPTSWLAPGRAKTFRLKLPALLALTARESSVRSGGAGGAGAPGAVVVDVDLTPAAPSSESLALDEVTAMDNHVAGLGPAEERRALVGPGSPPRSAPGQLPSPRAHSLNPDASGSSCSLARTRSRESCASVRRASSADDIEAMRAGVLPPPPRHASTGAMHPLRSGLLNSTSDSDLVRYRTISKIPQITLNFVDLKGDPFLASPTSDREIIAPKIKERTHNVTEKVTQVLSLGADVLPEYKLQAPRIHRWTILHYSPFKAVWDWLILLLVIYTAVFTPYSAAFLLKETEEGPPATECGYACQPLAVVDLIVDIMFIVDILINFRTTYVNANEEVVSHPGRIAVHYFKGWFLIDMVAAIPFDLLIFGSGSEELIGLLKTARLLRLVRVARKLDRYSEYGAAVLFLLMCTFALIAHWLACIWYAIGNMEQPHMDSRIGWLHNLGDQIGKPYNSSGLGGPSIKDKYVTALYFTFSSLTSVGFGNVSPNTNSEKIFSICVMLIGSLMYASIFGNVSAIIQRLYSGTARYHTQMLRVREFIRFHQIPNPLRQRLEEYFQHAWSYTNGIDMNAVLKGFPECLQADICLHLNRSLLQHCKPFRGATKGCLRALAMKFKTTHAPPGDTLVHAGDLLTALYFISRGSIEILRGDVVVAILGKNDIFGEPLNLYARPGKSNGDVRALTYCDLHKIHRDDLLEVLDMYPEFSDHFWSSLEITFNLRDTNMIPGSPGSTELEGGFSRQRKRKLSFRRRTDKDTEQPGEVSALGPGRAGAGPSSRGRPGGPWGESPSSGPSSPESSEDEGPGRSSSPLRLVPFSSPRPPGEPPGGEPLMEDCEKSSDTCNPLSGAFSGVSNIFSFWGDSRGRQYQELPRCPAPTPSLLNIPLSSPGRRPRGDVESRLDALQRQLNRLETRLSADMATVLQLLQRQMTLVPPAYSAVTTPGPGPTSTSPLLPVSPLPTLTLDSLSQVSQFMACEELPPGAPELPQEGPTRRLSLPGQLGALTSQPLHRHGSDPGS
Put plainly: Predictor hERG fluorescence polarization assay. As to conditions: for IC50 at 4 h: human, Predictor hERG Membrane (Invitrogen kit). The format is binding. The method, then:
This study was conducted using the Predictor hERG Fluorescence Polarization Assay Kit purchased from Invitrogen. The kit comprises Predictor hERG Tracer Red, Predictor hERG Membrane, Predictor hERG FP Assay Buffer, and E-4031 as the positive control. The Predictor hERG Tracer Red was diluted to prepare a 4 nM tracer working solution, while the stock solution of E-4031 was diluted to a 120 μM E-4031 working solution. Subsequently, serial dilutions of E-4031 were prepared to serve as the reference compound. Test peptides were subjected to gradient dilution to generate solutions with 6 concentration gradients. For the assay procedure, buffer or compound solution was first added to the assay plate, followed by the addition of membrane and the tracer. After incubating the assay plate at 25 °C for 4 h, fluorescence polarization (FP) values (mp values) were measured using an EnVision microplate reader (PerkinElmer) equipped with a set of polarized filters. The half-maximal inhibitory concentration (IC50) of active compounds was determined using GraphPad Prism software.

Data set [4] deals with A549 cells. Briefly: MTT cytotoxicity assay. The format is cell-based, human. As to conditions: 100 μM, 48 h. As to the method: A549 cells ([…], catalog number: PCS-300-010) were purchased from the American Type Culture Collection (ATCC, Manassas, VA, United States). The cells were cultured in Airway Epithelial Cell Basal Medium (ATCC, catalog number: PCS-300-030) supplemented with Bronchial/Tracheal Epithelial Cell Growth Kit (ATCC, catalog number: PCS-300-040) and incubated in a 37 °C incubator with 5% CO2. Then, cells were seeded into 96-well plates at a density of 5 × 10^4 cells per well and incubated overnight at 37 °C with 5% CO2. Subsequently, cells were treated with 100 μM peptides 1–5 for 48 h. After treatment, MTT stock solution (0.5 mg/mL) was added to each well, followed by additional 4-h incubation. Finally, the absorbance signal was measured at 570 nm using a microplate reader.
On the technique in general: Formazan colour is commonly taken as a measure of viable cells.

For data set [5], the system named is SARS-CoV-2 Omicron XBB.1.5 pseudovirus. To be noted: 3.2 µM.
For data set [6] the following is noted: mice, 1 and 5 mg/kg intranasal.
The test system of data set [7] is live SARS-CoV-2 Omicron XBB.1.5 strain. Also on record: species or system K18-hACE2 mice. As to conditions: mouse, in vivo.

T1 sequence (O14786 22-923): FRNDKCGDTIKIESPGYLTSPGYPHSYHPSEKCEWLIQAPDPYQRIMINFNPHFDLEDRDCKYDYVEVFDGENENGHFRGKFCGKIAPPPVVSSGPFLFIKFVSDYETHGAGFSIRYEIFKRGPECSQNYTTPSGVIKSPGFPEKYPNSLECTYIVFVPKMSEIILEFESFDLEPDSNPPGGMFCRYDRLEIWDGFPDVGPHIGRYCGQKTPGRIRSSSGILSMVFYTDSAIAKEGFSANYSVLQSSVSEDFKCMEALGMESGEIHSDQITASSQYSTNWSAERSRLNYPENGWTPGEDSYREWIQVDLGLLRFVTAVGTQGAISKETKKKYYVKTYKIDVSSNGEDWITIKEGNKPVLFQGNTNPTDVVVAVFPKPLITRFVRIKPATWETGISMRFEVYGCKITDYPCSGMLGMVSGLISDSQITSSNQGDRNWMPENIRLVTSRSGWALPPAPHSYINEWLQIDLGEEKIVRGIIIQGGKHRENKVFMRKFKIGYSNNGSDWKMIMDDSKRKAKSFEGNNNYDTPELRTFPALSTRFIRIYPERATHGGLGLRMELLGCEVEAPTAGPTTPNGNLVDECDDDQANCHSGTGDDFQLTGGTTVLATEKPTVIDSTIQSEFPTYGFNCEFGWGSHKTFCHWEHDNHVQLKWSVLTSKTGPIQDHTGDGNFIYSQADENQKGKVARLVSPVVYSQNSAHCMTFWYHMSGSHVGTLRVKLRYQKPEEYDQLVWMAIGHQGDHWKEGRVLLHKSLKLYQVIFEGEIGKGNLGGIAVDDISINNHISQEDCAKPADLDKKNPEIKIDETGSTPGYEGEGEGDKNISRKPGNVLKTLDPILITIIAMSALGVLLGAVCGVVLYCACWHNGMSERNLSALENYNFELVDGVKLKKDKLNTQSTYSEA

For the molecule `N=C(N)NCCC[C@@H](N)C(=O)N1CCC[C@@H]1C(=O)N1CCC[C@@H]1C(=O)N[C@H](CCCNC(=N)N)C(=O)N[C@H](CCC(=O)O)C(=O)NCC(=O)N[C@H](CCCNC(=N)N)C(=O)O` [NTP, rppregr] (H-[dR][dP][dP][dR][dE]G[dR]-OH), the dissociation constant Kd in data set [1] is 141 nM.

With `CSCC[C@H](NC(=O)[C@@H](NC(=O)[C@@H](N)CC(C)C)C(C)C)C(=O)NCC(=O)N[C@@H](CC(C)C)C(=O)N[C@@H](CC(N)=O)C(=O)N[C@H](C(=O)N[C@@H](Cc1c[nH]c2ccccc12)C(=O)N[C@@H](CC(C)C)C(=O)N[C@@H](CCCNC(=N)N)C(=O)N[C@@H](Cc1ccc(O)cc1)C(=O)N[C@@H](CO)C(=O)N[C@@H](CCCCN)C(=O)NCCC(=O)N[C@@H](CCCCNC(=O)CCCC[C@@H]1SC[C@@H]2NC(=O)N[C@@H]21)C(N)=O)C(C)C` [PP-4] (H-LVMGLNVWLRYSK[βAla]K(Biotin)-NH2; N-terminus assumed), in data set [1] (MST, 50 nM labeled protein, 100 mM potassium phosphate buffer pH 7.0), the “NRP1 (Kd)” value is on record as “no binding affinity”. Also, the Kd in data set [2] turned out to be 79 nM.

`CC(C)C[C@H](NC(=O)[C@H](CCC(=O)O)NC(=O)[C@H](C)NC(=O)[C@@H](N)CCC(=O)O)C(=O)N[C@H](CC(=O)O)C(=O)N[C@H](C(=O)N[C@@H](CO)C(=O)N[C@@H](CC(=O)O)C(=O)N[C@@H](C)C(=O)N[C@@H](Cc1ccccc1)C(=O)N[C@@H](Cc1ccc(O)cc1)C(=O)N[C@@H](CCCNC(=N)N)C(=O)N[C@@H](Cc1ccccc1)C(=O)N[C@@H](Cc1ccccc1)C(=O)N[C@@H](CCCNC(=N)N)C(=O)N[C@@H](CCCNC(=N)N)C(=O)N[C@@H](C)C(=O)N[C@@H](CCCNC(=N)N)C(=O)O)C(C)C` [Peptide-1] (H-EAEL[dD]VSDAFYRFFRRAR-OH; N-terminus and C-terminus assumed): the IC50 at 4 h in data set [3] is over 50000 nM. Besides, in data set [4], the “cytotoxicity to A549 cells” value is given as “no obvious toxicity”. Moreover, the “inhibition rate against SARS-CoV-2 Omicron XBB.1.5 infection” value in data set [5] is “approximately 80%”. Further, in data set [6], the “alanine aminotransferase (ALT) level” value was “did not change significantly”, the “aspartate aminotransferase (AST) level” value is recorded as “did not change significantly”, the “blood urea nitrogen (BUN) level” value is listed as “did not change significantly” and the “creatinine (CRE) level” value is on record as “did not change significantly”. Also, the “viral load in the lungs of mice vs control” value in data set [7] is on record as “significantly reduced”. Also, the “fold higher affinity for NRP1 compared with the single-target peptide” value in data set [1] (versus NTP) is recorded as about 4.4 fold. Also, the Kd in data set [2] was 19 nM. Moreover, in data set [2] (versus PP-4), the “fold higher affinity for RBD compared with the single-target peptide” value is on record as “approximately 4.2 fold”.

Regarding `CC(C)C[C@H](NC(=O)[C@H](C)NC(=O)[C@@H](NC(=O)[C@@H](N)CO)[C@@H](C)O)C(=O)N[C@H](CC(=O)O)C(=O)N[C@H](C(=O)N[C@@H](CO)C(=O)N[C@@H](CC(=O)O)C(=O)N[C@@H](C)C(=O)N[C@@H](Cc1ccccc1)C(=O)N[C@@H](Cc1ccc(O)cc1)C(=O)N[C@@H](CCCNC(=N)N)C(=O)N[C@@H](Cc1ccccc1)C(=O)N[C@@H](Cc1ccccc1)C(=O)N[C@@H](CCCNC(=N)N)C(=O)N[C@@H](CCCCN)C(=O)N[C@@H](C)C(=O)N[C@@H](CCCNC(=N)N)C(=O)O)C(C)C` [Peptide-2] (H-STAL[dD]VSDAFYRFFRKAR-OH; N-terminus and C-terminus assumed), in data set [3], the 50% inhibitory concentration (IC50) at 4 h is over 50000 nM. Further, in data set [2], the affinity, expressed as Kd, was 56 nM.

For the molecule `CC[C@H](C)[C@H](NC(=O)[C@@H](N)CC(N)=O)C(=O)N[C@@H](CCC(=O)O)C(=O)N[C@@H](CC(C)C)C(=O)N[C@H](CC(=O)O)C(=O)N[C@@H](C)C(=O)N[C@@H](CO)C(=O)N[C@@H](CC(=O)O)C(=O)N[C@@H](C)C(=O)N[C@@H](Cc1ccccc1)C(=O)N[C@H](C(=O)N[C@@H](CCCNC(=N)N)C(=O)N[C@@H](Cc1ccccc1)C(=O)N[C@@H](Cc1ccccc1)C(=O)N[C@@H](CCCNC(=N)N)C(=O)N[C@@H](CCC(N)=O)C(=O)N[C@@H](C)C(=O)N[C@@H](CCCNC(=N)N)C(=O)O)C(C)C` [Peptide-4] (H-NIEL[dD]ASDAFVRFFRQAR-OH; N-terminus and C-terminus assumed), the IC50 at 4 h in data set [3] is over 50000 nM. Besides, the Kd in data set [2] stood at 69 nM.

Take `CC[C@H](C)[C@H](NC(=O)[C@H](CCC(=O)O)NC(=O)[C@H](CS)NC(=O)[C@H](C)N)C(=O)N[C@H](CC(=O)O)C(=O)N[C@H](C(=O)N[C@@H](CO)C(=O)N[C@@H](CC(=O)O)C(=O)N[C@@H](C)C(=O)N[C@@H](Cc1ccccc1)C(=O)N[C@@H](CCCCN)C(=O)N[C@@H](CCCNC(=N)N)C(=O)N[C@@H](Cc1ccccc1)C(=O)N[C@@H](Cc1ccccc1)C(=O)N[C@@H](CCCNC(=N)N)C(=O)N[C@@H](C)C(=O)N[C@@H](C)C(=O)N[C@@H](CCCNC(=N)N)C(=O)O)C(C)C` [Peptide-5] (H-ACEI[dD]VSDAFKRFFRAAR-OH; N-terminus and C-terminus assumed): the half-inhibitory concentration (IC50) at 4 h in data set [3] was over 50000 nM. For the same molecule, the Kd in data set [2] worked out at 43 nM.

Take ELELVVSTAFYRFFRHAR [Peptide-3]: in data set [3], the IC50 is over 50000 nM. The molecule further displayed a Kd in data set [1] of 81 nM.
